US20220096376A1, “DRUG DELIVERY PLATFORM USING W/O/W-TYPE TRIOLEIN EMULSION PROMOTIVE OF BLOOD-BRAIN BARRIER OPENING” (PUSAN NATIONAL UNIVERSITY INDUSTRY-UNIVERSITY COOPERATION …, priority 2019, published 2022)
Values joined by “and” are separate entries in the source; they are usually repeats but may differ in a detail not shown here. Equal entries are not always repeated.

Experiment: Confirmation of drug delivery activity to brain (doxorubicin concentration by fluorometer)
Type: in vivo
Settings: rabbit
Protocol: A triolein emulsion having a W/O/W double structure and an average particle diameter of 7 μm was prepared in the same manner as described above. After diluting by mixing 0.2 ml (2%) of the emulsion in 10 ml of physiological saline, 7 ml of the emulsion diluted in the same procedure as in the experiment in which the trypan blue was added to 1.7 kg male rabbits distributed from Semtako and doxorubicin, a water-soluble drug, were injected, and 2 hours later, the brain of the rabbit was excised and the concentration of doxorubicin was measured using a fluorometer. At this time, three brain tissues were taken off and measured three times.

[1] = 7 ml diluted W/O/W triolein emulsion and doxorubicin injected, 2 hours later, single measurements
[2] = with W/O/W triolein emulsion, 2 hours, Average

COc1cccc2c1C(=O)c1c(O)c3c(c(O)c1C2=O)C[C@@](O)(C(=O)CO)C[C@@H]3O[C@H]1C[C@H](N)[C@H](O)[C@H](C)O1 [Doxorubicin, doxorubicin]
Doxorubicin concentration in the left brain (RFU) [1]: 64 RFU and 77 RFU and 89 RFU and 78 RFU and 65 RFU and 70 RFU and 53 RFU and 88 RFU | Doxorubicin concentration in the right brain (RFU) [1]: 420 RFU and 445 RFU and 431 RFU and 444 RFU and 455 RFU and 464 RFU and 437 RFU and 428 RFU | Doxorubicin concentration in the left brain (RFU) [2]: 73.56 RFU | Doxorubicin concentration in the right brain (RFU) [2]: 439.11 RFU | Right brain doxorubicin/left brain doxorubicin ratio [2]: 6.12
